Laboratory results reported in US20210009630A1, “CYCLIC DINUCLEOTIDES AS STING AGONISTS” (Janssen Biotech, Inc., priority 2017, published 2021).
pEC50, pIC50, pKd: −log10 of the molar value. Where two headings read alike, the source gives them in different places.

Key:
[1] = system: THP1-Blue ISG cells (IFN-β secretion); experiment: Human interferon-β induction assay; type: cell-based; conditions: total cumulative IFN-β induction over the dose range tested (0.78 to 50 uM) in THP-1 cells after a 24 hour exposure
Protocol: THP1-Blue ISG cells are used to measure the secretion of IFN-β into the culture supernatant following STING pathway activation. To run the assay, anti-IFN-β capture antibodies were coated on […] well MultiArray plates (Mesoscale Discovery). After a one hour incubation, plates were washed and 50 μL supernatant from the STING human cell reporter assay plates or IFN-β standards were mixed with 20 μL Sulfotag-conjugated detection antibody in the coated plates. Plates were incubated, shaking for 2 h, washed, and read buffer was applied. Electrochemiluminescence was measured on the SectorImager.

[2] = system: human STING pathway (THP1-ISG cells); experiment: STING human cell reporter assay; type: cell-based; conditions: IRF-inducible SEAP reporter, 24 h, means of at least three values
Protocol: Agonism of the human STING pathway is assessed in THP1-ISG cells (Invivogen, cat #thp-isg) derived from human THP1 monocyte cell line by stable integration of an interferon regulatory factor (IRF)-inducible SEAP reporter construct. THP1-Blue ISG cells express a secreted embryonic alkaline phosphatase (SEAP) reporter gene under the control of an ISG54 minimal promoter in conjunction with five interferon (IFN)-stimulated response elements. As a result, THP1-Blue ISG cells allow the monitoring of IRF activation by determining the activity of SEAP. The levels of IRF-induced SEAP in the cell culture supernatant are readily assessed with alkaline phosphatase detection medium, a SEAP detection reagent. These cells are resistant to Zeocin. 2′3′cGAMP was used as a positive control in this assay. To run the assay, 60,000 cells were dispensed in 30 μL/well of a white, opaque bottom tissue culture treated 384-well plate.
Test compounds were added in a volume of 10 μL (1% DMSO final concentration). Compounds are initially prepared in 100% DMSO, spotted on an compound dilution plate and then diluted in media prior to transfer. The assay was incubated for 24 h at 37° C., 5% CO2 then plates were centrifuged at 1200 rpm (120×g) for 5 min. After final incubation, 90 μL of alkaline phosphatase detection medium-substrate was added to each well of a new 384-well clear plate and 10 μL of the cell supernatant was transferred from the assay plate to the new alkaline phosphatase detection medium-plate using a Biomek FX and mixed 4 times. Plates were incubated at RT for 20 min then absorbance at 655 nm was determined on the Tecan Safire2.

[3] = molecular target: T1, human STING (E. coli produced truncated STING protein) (Homo sapiens, UniProt Q86WV6, H232R); experiment: STING SPR binding assay; conditions: steady state affinity, 1:1 binding model, 25° C.
T1 construct: contains residues 139-379 of Q86WV6 with an R at position 232 (H232R); HIS tag (N, cleaved yes); made in house; host or cells: E. coli
T1 sequence (Q86WV6 139-379 H232R): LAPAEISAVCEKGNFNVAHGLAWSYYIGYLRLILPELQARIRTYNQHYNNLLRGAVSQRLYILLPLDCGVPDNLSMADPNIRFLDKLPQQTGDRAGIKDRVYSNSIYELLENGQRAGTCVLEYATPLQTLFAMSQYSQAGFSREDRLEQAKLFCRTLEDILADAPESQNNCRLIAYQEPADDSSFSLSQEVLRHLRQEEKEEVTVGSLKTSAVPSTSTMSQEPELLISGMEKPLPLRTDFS
Protocol: Compounds were analyzed on an S200 biacore SPR instrument (GE Healthcare). E. coli produced truncated STING protein was immobilized on a series S streptavidin chip via biotin capture (GE Healthcare #BR100531) with. […] Steady state affinity and kinetic evaluations were carried out using 1:1 binding model (STING was treated as a dimer). Run parameters were as follows: 60 sec on, 300 sec off for the IFM compounds, cyclic-di-GMP (60 sec on/60 sec off), thiol isomer 1 (60 sec on/300 sec off) and cGAMP (60 sec on/1200 sec off) with a flow rate of 50 μL/min and data collection at 40 Hz at 25° C.

[4] = molecular target: human STING (biotinylated STING protein, residues 139-379 of Q86WV6, H232R) (Homo sapiens, UniProt Q86WV6, H232R); experiment: STING SPA binding assay
Sequence of human STING (biotinylated STING protein, residues 139-379 of Q86WV6, H232R) (Q86WV6 139-379 H232R, one chain of several): as the sequence (Q86WV6 139-379 H232R) above
Protocol: The HIS tag is cleaved after purification and prior to biotinylation.
Test compounds (80 nL) were added with an acoustic dispenser (EDC Biosystems) in 100% DMSO for a final assay concentration of 1% DMSO. Plates were centrifuged for 1 min and incubated for 60 min at room temperature. […] Plates were dark adapted for 2 h and read on a ViewLux (Perkin Elmer) for 12 min per plate.

[5] = read-out: hSTING SPA IC50, displacement of [3H]-2′3′-cGAMP from biotin-STING, means of at least three values

pEC50 [2] | pKd [3] | pIC50 [4, 5] | pEC50 ([2]; Homo sapiens) | pIC50 [4] | Compound | human IFN-β (ranking value) [1]
 |  |  | 5.61 | < 4.00 | Nc1ncnc2c1ncn2[C@@H]1O[C@@H]2COP(=O)(O)O[C@H]3C[C@H](n4cnc5c(N)ncnc54)O[C@@H]3CNS(=O)(=O)O[C@@H]1[C@@H]2F [Compound 36] | 
 |  |  | 5.87 | 4.91 | Nc1nc2c(nnn2[C@@H]2O[C@@H]3CNS(=O)(=O)O[C@H]4[C@@H](F)[C@H](n5cnc6c(N)ncnc65)O[C@@H]4COP(=O)(O)O[C@@H]2C3)c(=O)[nH]1 [Compound 37] | 
 |  |  | 7.19 | 7.68 | Nc1ncnc2c1ncn2[C@@H]1O[C@@H]2CNS(=O)(=O)O[C@@H]3[C@H](F)[C@@H](COP(=O)(O)O[C@H]2[C@H]1F)O[C@H]3n1cnc2c(=O)[nH]cnc21 [Compound 39] | 
 |  |  | 7.42 | 7.18 | CO[C@H]1[C@H]2OS(=O)(=O)NC[C@H]3O[C@@H](n4cnc5c(N)ncnc54)C[C@@H]3OP(=O)(O)OC[C@H]1O[C@H]2n1cnc2c(=O)[nH]cnc21 [Compound 40] | 
 |  |  | 4.65 | < 4.00 | Nc1ncnc2c1ncn2C1O[C@@H]2COP(=O)(O)O[C@@H]3[C@H](O)C(CNS(=O)(=O)O[C@H]2[C@H]1F)O[C@H]3n1cnc2c(N)ncnc21 (stereo partly drawn) [Compound 41] | 
 |  |  | ~7.41 | 5.89 | Nc1nc2c(ncn2[C@@H]2O[C@@H]3CNS(=O)(=O)OC4[C@@H](F)[C@H](n5cnc6c(N)ncnc65)O[C@@H]4COP(=O)(O)O[C@@H]2[C@@H]3O)c(=O)[nH]1 (stereo partly drawn) [Compound 47] | 
 |  |  |  | 7.96 | COC1C2COP(=O)(O)OC3C(CNS(=O)(=O)OC1C(n1nnc4c(=O)[nH]c(N)nc41)O2)OC(n1cnc2c(N)ncnc21)C3F (stereo not drawn) [Compound 51] | 
 |  |  |  | 5.40 | CO[C@H]1[C@H]2OP(=O)(O)OC[C@H]3O[C@@H](n4cnc5c(=O)[nH]cnc54)[C@H](F)[C@@H]3OS(=O)(=O)NC[C@H]1O[C@H]2n1cnc2c(=O)[nH]c(N)nc21 [Compound 53] | 11036 pg/mL
 |  |  |  | 6.12 | CO[C@H]1[C@H]2OS(=O)(=O)NC[C@H]3O[C@@H](n4cnc5c(N)ncnc54)[C@H](F)[C@@H]3OP(=O)(O)OC[C@H]1O[C@H]2n1cc(F)c2c(=O)[nH]cnc21 [Compound 54] | 18578 pg/mL
 |  |  |  | 6.66 | CO[C@H]1[C@H]2OS(=O)(=O)NC[C@H]3O[C@@H](n4cnc5c(N)ncnc54)[C@H](F)[C@@H]3OP(=O)(O)OC[C@H]1O[C@H]2n1cc(F)c2c(=O)n(C)cnc21 [Compound 55] | 25628 pg/mL

Further lines, the compound ahead of its results:

Compound | pEC50 [2] | pKd [3] | pIC50 [4, 5] | pEC50 ([2]; Homo sapiens) | pIC50 [4] | human IFN-β (ranking value) [1]
Nc1ncnc2c1ncn2[C@@H]1O[C@@H]2COP(=O)(O)O[C@H]3[C@@H](O)[C@H](n4cnc5c(N)ncnc54)O[C@@H]3COP(=O)(O)O[C@H]2[C@H]1O [3′,3′cAMP, reference compound] | 4.75 | 5.22 | 4.14 |  |  | 539 pg/mL
Nc1nc2c(ncn2[C@@H]2O[C@@H]3COP(=O)(O)O[C@H]4[C@@H](O)[C@H](n5cnc6c(=O)[nH]c(N)nc65)O[C@@H]4COP(=O)(O)O[C@H]3[C@H]2O)c(=O)[nH]1 [3′,3′cGMP, reference compound] | 5.06 | 5.40 | 5.06 |  |  | 
CO[C@H]1[C@H]2OP(=O)(O)OC[C@H]3O[C@@H](n4cnc5c(N)ncnc54)[C@H](F)[C@@H]3NS(=O)(=O)OC[C@H]1O[C@H]2n1cnc2c(=O)[nH]c(N)nc21 [Compound 6] |  | 8.92 |  | 6.00 | 7.96 | 6762 pg/mL
CO[C@H]1[C@H]2OS(=O)(=O)NC[C@]34CO[C@H](C3OP(=O)(O)OC[C@H]1O[C@H]2n1cnc2c(=O)[nH]c(N)nc21)[C@H](n1cnc2c(N)ncnc21)O4 (stereo partly drawn) [Compound 9] |  | 6.55 |  | 6.96 | 5.55 | 8104 pg/mL
Nc1nc2c(ncn2[C@@H]2O[C@@H]3COP(=O)(O)O[C@H]4[C@@H](F)[C@H](n5cnc6c(N)ncnc65)O[C@@H]4CNS(=O)(=O)O[C@@H]2[C@@H]3O)c(=O)[nH]1 [Compound 11] |  | 8.19 |  | 7.52 | 7.82 | 14896 pg/mL
CO[C@H]1[C@H]2OS(=O)(=O)NC[C@H]3O[C@@H](n4cnc5c(N)ncnc54)C[C@@H]3OP(=O)(O)OC[C@H]1O[C@H]2n1cnc2c(=O)[nH]c(N)nc21 [Compound 12] |  |  |  | 6.85 | 6.66 | 
Nc1nc2c(nnn2[C@@H]2O[C@@H]3COP(=O)(O)O[C@H]4[C@@H](F)[C@H](n5cnc6c(N)ncnc65)O[C@@H]4CNS(=O)(=O)O[C@@H]2C3)c(=O)[nH]1 [Compound 15] |  |  |  | 7.37 | 6.44 | 15611 pg/mL
Nc1ncnc2c1ncn2C1O[C@@H]2CNS(=O)(=O)O[C@H]3C(n4cnc5c(N)ncnc54)O[C@H](COP(=O)(O)O[C@H]2[C@H]1F)[C@H]3O (stereo partly drawn) [Compound 17] |  | 5.29 |  | 6.60 | 4.67 | 17298 pg/mL
Nc1nc2c(ncn2C2O[C@@H]3COP(=O)(O)O[C@H]4C[C@H](n5cnc6c(N)ncnc65)OC4CNS(=O)(=O)O[C@@H]2[C@@H]3O)c(=O)[nH]1 (stereo partly drawn) [Compound 18] |  |  |  | 6.96 | 5.94 | 15249 pg/mL
CO[C@H]1[C@H]2OP(=O)(O)OC[C@H]3O[C@@H](n4cnc5c(N)ncnc54)C[C@@H]3NS(=O)(=O)OC[C@H]1O[C@H]2n1cnc2c(=O)[nH]c(N)nc21 [Compound 20] |  | 8.09 |  | ~6.66 | 7.33 | 6045 pg/mL
CO[C@H]1[C@H]2OP(=O)(O)OC[C@H]3OC(n4cnc5c(N)ncnc54)[C@H](F)[C@@H]3OS(=O)(=O)NC[C@H]1O[C@H]2n1cnc2c(=O)[nH]c(N)nc21 (stereo partly drawn) [Compound 22] |  |  |  | 7.59 | 7.04 | 
CO[C@H]1[C@H]2OP(=O)(O)OC[C@H]3OC(n4cnc5c(N)ncnc54)C[C@@H]3OS(=O)(=O)NC[C@H]1O[C@H]2n1cnc2c(=O)[nH]c(N)nc21 (stereo partly drawn) [Compound 24] |  |  |  | 7.96 | 5.30 | 11534 pg/mL
Nc1nc2c(ncn2C2OC3CNS(=O)(=O)OC4C(COP(=O)(O)OC2C3)OC(n2cnc3c(N)ncnc32)C4F)c(=O)[nH]1 (stereo not drawn) [Compound 26] |  |  |  | 5.99 | 4.55 | 
CO[C@H]1[C@H]2OS(=O)(=O)NC[C@H]3O[C@@H](n4cnc5c(N)ncnc54)[C@@H](F)[C@@H]3O[P@](=O)(O)OC[C@H]1O[C@H]2n1cnc2c(=O)[nH]c(N)nc21 [Compound 28] |  |  |  | 7.00 | 6.72 | 12969 pg/mL
Nc1ncnc2c1ncn2[C@@H]1O[C@@H]2CNS(=O)(=O)O[C@@H]3[C@H](O)[C@@H](COP(=O)(O)O[C@H]2[C@H]1O)O[C@H]3n1cnc2c(N)ncnc21 [Compound 30] |  |  |  | 4.88 | < 4.00 | 
Nc1ncnc2c1ncn2[C@@H]1O[C@@H]2COP(=O)(O)O[C@@H]3[C@H](F)[C@@H](CNS(=O)(=O)O[C@H]2[C@H]1F)O[C@H]3n1cnc2c(N)ncnc21 [Compound 35] |  |  |  | 5.15 | < 4.00 | 
Nc1nc2c(ncn2[C@@H]2O[C@@H]3COP(=O)(O)O[C@H]4[C@@H](O)[C@H](n5cnc6c(N)ncnc65)O[C@@H]4COP(=O)(O)O[C@@H]2[C@@H]3O)c(=O)[nH]1 [c-GAMP, (2′,3′)cyclic guanosine monophosphate-adenosine monophosphate, reference compound] | 6.28 |  |  |  |  | 
